Test [1] concerns A3-YFP. In words: A3-YFP receptor internalization (granularity analysis) in CHO A3-YFP cells.
Test [2] addresses T1, human A3AR (Homo sapiens, UniProt P0DMS8).
T1 sequence (P0DMS8 1-318): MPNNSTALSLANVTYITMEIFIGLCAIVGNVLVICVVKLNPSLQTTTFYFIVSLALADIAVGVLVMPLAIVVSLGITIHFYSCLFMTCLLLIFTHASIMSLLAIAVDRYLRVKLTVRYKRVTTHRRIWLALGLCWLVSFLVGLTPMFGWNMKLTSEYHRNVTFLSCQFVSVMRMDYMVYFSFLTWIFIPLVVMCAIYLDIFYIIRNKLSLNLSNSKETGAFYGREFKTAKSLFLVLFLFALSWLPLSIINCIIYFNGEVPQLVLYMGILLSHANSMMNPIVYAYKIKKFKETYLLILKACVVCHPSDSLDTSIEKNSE
The experiment in a line: High-content fluorescent ligand (CA200645) competition binding assay in live CHO CRE-SPAP cells expressing the A3AR. The note with it: for remaining binding at 1000 µM: read-out: % of CA200645 binding (% DMSO control).

Test [3] concerns the target T1, human A3AR. The experiment in a line: cell-based.
For test [4], the target named is T1, human A3AR. In words: CRE-SPAP gene transcription assay (shift of NECA-mediated inhibition of forskolin-stimulated SPAP response).
Test [5] has as its target T2, human A1AR (Homo sapiens, UniProt P30542).
T2 sequence (P30542 1-326): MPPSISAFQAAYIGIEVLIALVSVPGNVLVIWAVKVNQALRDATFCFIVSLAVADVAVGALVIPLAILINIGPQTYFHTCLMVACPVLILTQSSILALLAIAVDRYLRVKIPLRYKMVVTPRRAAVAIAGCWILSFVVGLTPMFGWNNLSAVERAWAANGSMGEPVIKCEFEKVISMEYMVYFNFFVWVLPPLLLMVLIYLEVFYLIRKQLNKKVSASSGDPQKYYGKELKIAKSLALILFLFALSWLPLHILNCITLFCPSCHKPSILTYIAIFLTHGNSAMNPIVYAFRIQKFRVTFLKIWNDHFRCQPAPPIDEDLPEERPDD
In words: cell-based.

In test [6] the target is T2, human A1AR. The experiment in a line: High-content fluorescent ligand (CA200645) competition binding assay in live CHO-A1 cells. The following applies: for inhibition at 10 µM: read-out: inhibition of CA200645 binding at the A1AR; for A1 % inhibition (Table S3): top concentration of compound tested, quoted where less than 50% inhibition of total binding.
Test [7] addresses T2, human A1AR.
Test [8] concerns the target T1, human A3AR.
The mark [9] stands for this setting: pKi at the adenosine A3 receptor (Table S2), mean ± s.e.m from 3 separate experiments.
[10] abbreviates: A3 pKi (Table S3), mean ± s.e.m.

Each structure is given as a SMILES string. “And” between values parts separate entries of the source, which are not always exact repeats. Identical values can stand only once. Like-named read-outs stand apart in the source and are kept apart here.

In the case of `CNC(=O)[C@H]1O[C@@H](n2cnc3c(NCc4cccc(I)c4)nc(Cl)nc32)[C@H](O)[C@@H]1O` [2-Cl IB-MECA], in test [1], the “A3-YFP internalization / agonist action” value is “stimulated A3-YFP internalization”. In test [2] (setting [9]), `Nc1ccc2[nH]ncc2c1` [AC 30454] gave a Ki of 3.16 µM. The remaining binding at 1000 µM in test [2] turned out to be 13%. In the same order, the values of `Cc1cc2cc(N)ccc2[nH]1` [AC 34875] are 1.2 µM and 10.4%.

In the case of `Nc1ccc(C(F)(F)F)cc1N` [BTB 07340], the affinity in test [2] (setting [9]) corresponds to a Ki of 2.95 µM. Also, the remaining binding at 1000 µM in test [2] stood at 10.3%. Regarding `Nc1nc2ccc(Cl)cc2c2nc(-c3ccco3)nn12` [CGS 15943, reference compound], affinity in test [3] was put at a Ki of 0.00661 µM. For the compound `CCNC(=O)[C@H]1O[C@@H](n2cnc3c(N)nc(NCCc4ccc(CCC(=O)O)cc4)nc32)[C@H](O)[C@@H]1O` [CGS 21680, reference compound], the “displacement of CA200645 binding” value in test [2] (A3AR, agonist competition curves) was “only partial displacement”. For the compound `COc1ccc(-n2nc3c(NC(=O)c4ccccc4)nc4ccccc4n3c2=O)cc1` [Compound 1], the Kb in test [4] was 0.00166 µM. The results for the Ki in test [3] and in test [5] were 0.00309 µM and 1.17 µM, respectively. Consider `COc1ccc(-n2nc3c(=O)[nH]c4ccccc4n3c2=O)cc1` [Compound 2], for which the Ki in test [3] is 0.0776 µM.

Regarding `COc1ccc(NN=c2[nH]c3ccccc3[nH]c2=O)cc1` [Compound 3], the Ki in test [3] was 2.63 µM. The same measure, in the same setting: for `O=C(Nc1cnc2ccccc2c1)c1ccccc1` [Compound 4] the value was greater than 100 µM; for `Nc1cnc2ccccc2c1` [Compound 5], greater than 10000 µM; for `COc1ccc(-n2ccnc2)cc1` [Compound 6], 525 µM. The same measure, in the same setting: for `COc1ccc(NC(C)=O)cc1` [Compound 7] the value was 20.4 µM; for `Nc1cccc(-c2nc3ccccc3[nH]2)c1` [Compound 8], 3.24 µM.

Consider `Nc1ccc(-c2nc3ccccc3[nH]2)cc1` [Compound 9], for which the inhibition at 100 µM in test [2] (read-out: % inhibition of CA200645 binding at A3AR) is 41.2 ± 7.3%. As for `O=C(Nc1ccccc1-c1nc2ccccc2[nH]1)c1cccnc1` [Compound 10], in test [2], the “fold increase in A3AR affinity compared to DP01095” value worked out at 3 fold. Further, the affinity in test [2] (setting [10]), expressed as Ki, was 0.0977 µM. Also, in test [6], the inhibition at 10 µM is less than 50% and the “A1 % inhibition (Table S3)” value stood at 38.9 ± 8.3%. As to `O=C(Nc1ccccc1-c1nc2ccccc2[nH]1)c1ccco1` [Compound 11], in test [2] (setting [10]), the Ki was 0.166 µM. Further, in test [6], the inhibition at 10 µM was less than 50% and the “A1 % inhibition (Table S3)” value was 40.6 ± 7.3%. The compound `O=C(Nc1ccccc1-c1nc2ccccc2[nH]1)c1cccs1` [Compound 12] gave a Ki in test [2] (setting [10]) of 0.257 µM. Moreover, in test [6], the inhibition at 10 µM is less than 50% and the “A1 % inhibition (Table S3)” value worked out at 47.9 ± 9.7%. Regarding `Nc1ccccc1-c1nc2ccccc2[nH]1` [DP 01095], the Ki in test [3] was 0.363 µM and 0.331 µM. Moreover, in test [2], the remaining binding at 1000 µM worked out at 36.3%. Regarding `CCCCC#Cc1nc(NC)c2ncn([C@@H]3O[C@H](CO)[C@@H](O)[C@H]3O)c2n1` [HEMADO, reference compound], the “pIC50 for inhibition of CA200645 binding (agonists)” value in test [2] (A3AR, n = 4) is 7.23 ± 0.23. Moreover, in test [1], the “A3-YFP internalization / agonist action” value is given as “stimulated A3-YFP internalization”. Regarding `CNC(=O)[C@H]1O[C@@H](n2cnc3c(NCc4cccc(I)c4)ncnc32)[C@H](O)[C@@H]1O` [IB-MECA], in test [1], the “A3-YFP internalization / agonist action” value is reported as “caused A3-YFP internalisztion”. Regarding `COC(=O)C1Cc2ccccc2N1` (centres unmarked) [MO 00997], the Ki in test [2] (setting [9]) is 0.794 µM. For the same compound, the remaining binding at 1000 µM in test [2] was 31.1%. With `CCCn1c(=O)[nH]c2nc(-c3ccc(S(=O)(=O)N4CCN(c5ccc(Cl)cc5)CC4)cc3)[nH]c2c1=O` [PSB 603], the results for the inhibition constant Ki in test [7] and in test [8] were 0.0417 µM and 0.0562 µM, respectively. On to `Nc1nc2c(cnn2CCc2ccccc2)c2nc(-c3ccco3)nn12` [SCH 58261, reference compound], for which the Ki in test [3] is 0.186 µM. Consider `Cc1cc(N)c(N)cc1Cl` [TL 00770], for which the Ki in test [2] (setting [9]) is 1 µM. The remaining binding at 1000 µM in test [2] turned out to be 23.5%.

On to `Nc1nc(NCCc2ccc(O)cc2)nc2nc(-c3ccco3)nn12` [ZM 241385, reference compound], for which the Kb in test [4] is 0.407 µM. In test [3], this compound showed a Ki of 0.182 µM.

Broadly, the Ki is the dissociation constant of the complex between target and ligand, obtained from inhibition or displacement. Read a high Ki as lower affinity. By inhibition is commonly meant the drop in the measured response relative to a control, in per cent.

The values are drawn from paper PMC3456874, “Fragment Screening at Adenosine-A3 Receptors in Living Cells Using a Fluorescence-Based Binding Assay” (Chemistry & Biology, 2012).
